Data as given in ChEMBL document CHEMBL2074026, “Novel experimental parameters to quantify the modulation of absorptive and secretory transport of compounds by P-glycoprotein in cell culture models of intestinal epithelium” (Pharm Res, 2003).
One block for each molecule: values may come before it.

Experiments:
Type in all cases: functional, cell-based
[1] = target: T1, ATP-dependent translocase ABCB1 (Homo sapiens, UniProt P08183); test: TP_TRANSPORTER: transepithelial transport of Saquinavir at a concentration of 20 uM in MDR1-expressing MDCK cells; conditions: dog
T1 sequence (P08183 whole entry): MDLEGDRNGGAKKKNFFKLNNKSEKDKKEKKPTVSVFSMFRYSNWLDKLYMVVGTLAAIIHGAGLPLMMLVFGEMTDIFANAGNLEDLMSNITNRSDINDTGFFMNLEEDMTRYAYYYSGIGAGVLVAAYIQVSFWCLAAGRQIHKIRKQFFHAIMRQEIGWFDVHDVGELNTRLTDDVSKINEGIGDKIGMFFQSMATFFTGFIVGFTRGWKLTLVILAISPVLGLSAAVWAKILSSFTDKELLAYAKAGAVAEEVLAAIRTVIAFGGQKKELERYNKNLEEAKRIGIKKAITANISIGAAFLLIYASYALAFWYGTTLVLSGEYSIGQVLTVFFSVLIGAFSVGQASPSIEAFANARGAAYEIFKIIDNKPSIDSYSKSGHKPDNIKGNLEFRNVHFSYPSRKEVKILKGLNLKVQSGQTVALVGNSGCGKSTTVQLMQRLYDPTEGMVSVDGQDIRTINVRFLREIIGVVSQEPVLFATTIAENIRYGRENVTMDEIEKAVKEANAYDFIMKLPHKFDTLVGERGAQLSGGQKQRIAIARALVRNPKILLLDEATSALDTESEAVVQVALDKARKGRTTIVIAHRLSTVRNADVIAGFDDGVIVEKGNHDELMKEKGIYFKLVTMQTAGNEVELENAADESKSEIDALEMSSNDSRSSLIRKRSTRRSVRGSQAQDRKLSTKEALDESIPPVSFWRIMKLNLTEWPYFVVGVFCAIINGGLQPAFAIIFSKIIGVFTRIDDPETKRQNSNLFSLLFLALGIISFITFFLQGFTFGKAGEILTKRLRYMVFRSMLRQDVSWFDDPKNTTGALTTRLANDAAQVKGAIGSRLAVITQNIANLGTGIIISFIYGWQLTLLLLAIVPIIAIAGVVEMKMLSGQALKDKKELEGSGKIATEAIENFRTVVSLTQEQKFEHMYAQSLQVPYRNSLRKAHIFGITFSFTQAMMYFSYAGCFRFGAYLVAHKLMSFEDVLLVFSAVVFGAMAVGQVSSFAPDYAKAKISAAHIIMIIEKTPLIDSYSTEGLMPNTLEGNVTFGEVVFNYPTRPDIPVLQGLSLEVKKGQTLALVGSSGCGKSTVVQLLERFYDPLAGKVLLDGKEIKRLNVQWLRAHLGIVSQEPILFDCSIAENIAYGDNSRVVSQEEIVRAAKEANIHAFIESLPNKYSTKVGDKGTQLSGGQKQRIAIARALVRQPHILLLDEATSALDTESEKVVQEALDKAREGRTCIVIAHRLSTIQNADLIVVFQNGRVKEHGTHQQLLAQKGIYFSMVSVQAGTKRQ

[2] = target: T1, ATP-dependent translocase ABCB1; test: TP_TRANSPORTER: transepithelial transport of Saquinavir at a concentration of 20 uM in Caco-2 cells; conditions: caco-2, 20 µM
[3] = target: T1, ATP-dependent translocase ABCB1; test: TP_TRANSPORTER: transepithelial transport of Acebutolol at a concentration of 20 uM in Caco-2 cells; conditions: caco-2, 20 µM
[4] = target: T1, ATP-dependent translocase ABCB1; test: TP_TRANSPORTER: transepithelial transport of Acebutolol at a concentration of 20 uM in MDR1-expressing MDCK cells; conditions: dog
[5] = target: T1, ATP-dependent translocase ABCB1; test: TP_TRANSPORTER: transepithelial transport of Colchicine at a concentration of 25 uM in Caco-2 cells; conditions: caco-2, 25 µM
[6] = target: T1, ATP-dependent translocase ABCB1; test: TP_TRANSPORTER: transepithelial transport of Colchicine at a concentration of 25 uM in MDR1-expressing MDCK cells; conditions: dog
[7] = target: T1, ATP-dependent translocase ABCB1; test: TP_TRANSPORTER: transepithelial transport of Digoxin at a concentration of 10 uM in MDR1-expressing MDCK cells; conditions: dog
[8] = target: T1, ATP-dependent translocase ABCB1; test: TP_TRANSPORTER: transepithelial transport of Digoxin at a concentration of 10 uM in Caco-2 cells
[9] = target: T1, ATP-dependent translocase ABCB1; test: TP_TRANSPORTER: transepithelial transport of Doxorubicin at a concentration of 10 uM in Caco-2 cells
[10] = target: T1, ATP-dependent translocase ABCB1; test: TP_TRANSPORTER: transepithelial transport of Doxorubicin at a concentration of 10 uM in MDR1-expressing MDCK cells; conditions: dog
[11] = target: T1, ATP-dependent translocase ABCB1; test: TP_TRANSPORTER: transepithelial transport of Methylprednisolone at a concentration of 20 uM in MDR1-expressing MDCK cells; conditions: dog
[12] = target: T1, ATP-dependent translocase ABCB1; test: TP_TRANSPORTER: transepithelial transport of Methylprednisolone at a concentration of 20 uM in Caco-2 cells; conditions: caco-2, 20 µM
[13] = target: T1, ATP-dependent translocase ABCB1; test: TP_TRANSPORTER: transepithelial transport of Taxol at a concentration of 10 uM in MDR1-expressing MDCK cells; conditions: dog
[14] = target: T1, ATP-dependent translocase ABCB1; test: TP_TRANSPORTER: transepithelial transport of Taxol at a concentration of 10 uM in Caco-2 cells
[15] = target: T1, ATP-dependent translocase ABCB1; test: TP_TRANSPORTER: transepithelial transport of Prednisolone at a concentration of 20 uM in MDR1-expressing MDCK cells; conditions: dog
[16] = target: T1, ATP-dependent translocase ABCB1; test: TP_TRANSPORTER: transepithelial transport of Ranitidine at a concentration of 100 uM in MDR1-expressing MDCK cells; conditions: dog
[17] = target: T1, ATP-dependent translocase ABCB1; test: TP_TRANSPORTER: transepithelial transport of Ranitidine at a concentration of 100 uM in Caco-2 cells; conditions: caco-2, 100 µM
[18] = target: T1, ATP-dependent translocase ABCB1; test: TP_TRANSPORTER: transepithelial transport of Rhodamine at a concentration of 10 uM in MDR1-expressing MDCK cells; conditions: dog
[19] = target: T1, ATP-dependent translocase ABCB1; test: TP_TRANSPORTER: transepithelial transport of Rhodamine at a concentration of 10 uM in Caco-2 cells
[20] = target: T1, ATP-dependent translocase ABCB1; test: TP_TRANSPORTER: transepithelial transport of Vinblastine at a concentration of 0.1 uM in MDR1-expressing MDCK cells; conditions: dog
[21] = target: T1, ATP-dependent translocase ABCB1; test: TP_TRANSPORTER: transepithelial transport in the presence of Vinblastine at 0.1 uM in Caco-2 cells

Compound: CC(C)(C)NC(=O)[C@@H]1C[C@@H]2CCCC[C@@H]2CN1C[C@@H](O)[C@H](Cc1ccccc1)NC(=O)[C@H](CC(N)=O)NC(=O)c1ccc2ccccc2n1
- Activity [1]: substrate [+]
- Activity [2]: substrate [+]

Compound: COc1cc2c(c(OC)c1OC)-c1ccc(OC)c(=O)cc1[C@@H](NC(C)=O)CC2 [COLCHICINE]
- Activity [5]: substrate [+]
- Activity [6]: substrate [+]

Compound: C[C@H]1O[C@@H](O[C@H]2[C@@H](O)C[C@H](O[C@H]3[C@@H](O)C[C@H](O[C@H]4CC[C@@]5(C)[C@H](CC[C@@H]6[C@@H]5C[C@@H](O)[C@]5(C)[C@@H](C7=CC(=O)OC7)CC[C@]65O)C4)O[C@@H]3C)O[C@@H]2C)C[C@H](O)[C@@H]1O [DIGOXIN]
- Activity [7]: substrate [+]
- Activity [8]: substrate [+]

Compound: C[C@H]1C[C@@H]2[C@H]([C@@H](O)C[C@@]3(C)[C@H]2CC[C@]3(O)C(=O)CO)[C@@]2(C)C=CC(=O)C=C12 [METHYLPREDNISOLONE]
- Activity [11]: substrate [+]
- Activity [12]: substrate [+]

Compound: CC(=O)O[C@H]1C(=O)[C@@]2(C)[C@H]([C@H](OC(=O)c3ccccc3)[C@]3(O)C[C@H](OC(=O)[C@H](O)[C@@H](NC(=O)c4ccccc4)c4ccccc4)C(C)=C1C3(C)C)[C@]1(OC(C)=O)CO[C@@H]1C[C@@H]2O [PACLITAXEL]
- Activity [13]: substrate [+]
- Activity [14]: substrate [+]

Compound: C[C@]12C=CC(=O)C=C1CC[C@@H]1[C@@H]2[C@@H](O)C[C@@]2(C)[C@H]1CC[C@]2(O)C(=O)CO [PREDNISOLONE]
- Activity [15]: substrate [+]

Compound: CNC(=C[N+](=O)[O-])NCCSCc1ccc(CN(C)C)o1 [RANITIDINE]
- Activity [16]: substrate [+]
- Activity [17]: substrate [+]

Next, values leading:

- Activity [3]: substrate [+]
- Activity [4]: substrate [+]
Compound: CCCC(=O)Nc1ccc(OCC(O)CNC(C)C)c(C(C)=O)c1 (stereo unspecified) [ACEBUTOLOL]

- Activity [9]: substrate [+]
- Activity [10]: substrate [+]
Compound: COc1cccc2c1C(=O)c1c(O)c3c(c(O)c1C2=O)C[C@@](O)(C(=O)CO)C[C@@H]3O[C@H]1C[C@H](N)[C@H](O)[C@H](C)O1 [DOXORUBICIN]

- Activity [18]: substrate [+]
- Activity [19]: substrate [+]
Compound: CCN(CC)c1ccc2c(-c3ccccc3C(=O)O)c3ccc(=[N+](CC)CC)cc-3oc2c1.[Cl-] [RHODAMINE]

- Activity [20]: substrate [+]
- Activity [21]: substrate [+]
Compound: CC[C@]1(O)C[C@@H]2CN(CCc3c([nH]c4ccccc34)[C@@](C(=O)OC)(c3cc4c(cc3OC)N(C)[C@H]3[C@@](O)(C(=O)OC)[C@H](OC(C)=O)[C@]5(CC)C=CCN6CC[C@]43[C@@H]65)C2)C1 [VINBLASTINE]
